One assay deals with Cryptococcus neoformans. Briefly: Antifungal activity against Cryptococcus neoformans H99 assessed as fungal growth inhibition at <= […] uM measured after 48 hrs by resazurin assay. The assay is classed as functional, organism-based. (Alamar Blue is a resazurin reagent that responds to reducing activity.)
The subject of another assay is Candida albicans. The assay is described as follows: Antifungal activity against Candida albicans clinical isolate 2 assessed as fungal growth inhibition at <= […] uM measured after 48 hrs by resazurin assay. The assay is classed as functional, organism-based.

Structures are written as SMILES. The source made the active and inactive calls. The rule behind the calls is not given here.

The text below walks through data of ChEMBL document CHEMBL4402526, “Design and Synthesis of Fungal-Selective Resorcylate Aminopyrazole Hsp90 Inhibitors” (J Med Chem, 2020).

`O=C(c1c(O)cc(O)cc1Nc1ccnn1-c1ccccc1)N1Cc2cccnc2C1`: the outcome in the assay with Cryptococcus neoformans and with Candida albicans was Active.
With `CCc1cc(Nc2cc(O)cc(O)c2C(=O)N2Cc3cn[nH]c3C2)n(Cc2ccc(OC)cc2)n1`, the outcome in the assay with Cryptococcus neoformans and with Candida albicans was Active.
For `Cc1cc(Nc2cc(O)cc(O)c2C(=O)N2Cc3ccccc3C2)n(Cc2ccccc2C)n1`, the outcome in the assay on Cryptococcus neoformans and in the assay on Candida albicans was Active.
Take `COc1ccc(Cn2nc(C(C)C)cc2Nc2cc(O)cc(O)c2C(=O)N2Cc3cn[nH]c3C2)cc1`: the result in the assay on Cryptococcus neoformans and in the assay with Candida albicans was Active.
Take `Cn1nccc1Nc1cc(O)cc(O)c1C(=O)N1Cc2cccnc2C1`: the outcome in the assay with Cryptococcus neoformans and in the assay on Candida albicans was Active.
Turning to `Cn1nc(-c2ccccc2)cc1Nc1cc(O)cc(O)c1C(=O)N1Cc2cccnc2C1`, the result with Cryptococcus neoformans and with Candida albicans was Active.
In the case of `COc1ccc(Cn2ncc(Cc3ccccc3)c2Nc2cc(O)cc(O)c2C(=O)N2Cc3ccccc3C2)cc1`, the result in the assay with Cryptococcus neoformans and in the assay on Candida albicans was Active.
With `Cn1nc(-c2ccc(C(F)(F)F)cc2)cc1Nc1cc(O)cc(O)c1C(=O)N1Cc2cccnc2C1`, the outcome with Cryptococcus neoformans and with Candida albicans was Active.
`O=C(c1c(O)cc(O)cc1Nc1ccnn1Cc1cccnc1)N1Cc2cn[nH]c2C1`: the result in the assay on Cryptococcus neoformans and in the assay with Candida albicans was Active.
For `COc1ccc(-c2cc(Nc3cc(O)cc(O)c3C(=O)N3Cc4cccnc4C3)n(C)n2)cc1`, the result in the assay on Cryptococcus neoformans and in the assay on Candida albicans was Active.
As to `CC(C)c1cc(Nc2cc(O)cc(O)c2C(=O)N2Cc3cn[nH]c3C2)n(C)n1`, the result in the assay on Cryptococcus neoformans and in the assay on Candida albicans was Active.
For `Cn1nccc1Nc1cc(O)cc(O)c1C(=O)N1Cc2ccccc2C1`, the outcome in the assay on Cryptococcus neoformans and with Candida albicans was Active.
Turning to `COc1ccc(Cn2nc(C(C)(C)C)cc2Nc2cc(O)cc(O)c2C(=O)N2Cc3ccccc3C2)cc1`, the result in the assay on Cryptococcus neoformans and with Candida albicans was Active.
In the case of `O=C(c1c(O)cc(O)cc1Nc1ccnn1CC1CCCCC1)N1Cc2cn[nH]c2C1`, the outcome in the assay with Cryptococcus neoformans and with Candida albicans was Active.
Regarding `COc1ccc(Cn2nc(C)cc2Nc2cc(O)cc(O)c2C(=O)N2Cc3cccnc3C2)cc1`, the outcome in the assay on Cryptococcus neoformans and in the assay on Candida albicans was Active.
`COc1ccc(Cn2nc(C3CC3)cc2Nc2cc(O)cc(O)c2C(=O)N2Cc3cccnc3C2)cc1`: the result in the assay on Cryptococcus neoformans and with Candida albicans was Active.
In the case of `CC(C)n1nccc1Nc1cc(O)cc(O)c1C(=O)N1Cc2cn[nH]c2C1`, the outcome in the assay on Cryptococcus neoformans and with Candida albicans was Active.
`Cn1nc(-c2cccc(C(F)(F)F)c2)cc1Nc1cc(O)cc(O)c1C(=O)N1Cc2ccccc2C1`: the result with Cryptococcus neoformans and with Candida albicans was Active.
As to `O=C(c1c(O)cc(O)cc1Nc1ccnn1Cc1cccnc1)N1Cc2ccccc2C1`, the result with Cryptococcus neoformans and in the assay with Candida albicans was Active.
As for `CC(C)Cn1nccc1Nc1cc(O)cc(O)c1C(=O)N1Cc2ccccc2C1`, the outcome with Cryptococcus neoformans and in the assay on Candida albicans was Active.
As for `O=C(c1c(O)cc(O)cc1Nc1cc(-c2ccccc2)nn1C1CCCCC1)N1Cc2cccnc2C1`, the result with Cryptococcus neoformans and in the assay with Candida albicans was Active.
With `COc1ccc(Cn2nc(-c3ccccc3)cc2Nc2cc(O)cc(O)c2C(=O)N2Cc3cccnc3C2)cc1`, the outcome in the assay with Cryptococcus neoformans and in the assay on Candida albicans was Active.
As for `Cc1ccccc1-c1cc(Nc2cc(O)cc(O)c2C(=O)N2Cc3cccnc3C2)n(C)n1`, the outcome with Cryptococcus neoformans and with Candida albicans was Active.
On to `O=C(c1c(O)cc(O)cc1Nc1ccnn1C1CCCCC1)N1Cc2ccccc2C1`, for which the outcome in the assay on Cryptococcus neoformans and in the assay on Candida albicans was Active.
On to `COc1ccc(Cn2nc(C3CCCC3)cc2Nc2cc(O)cc(O)c2C(=O)N2Cc3cn[nH]c3C2)cc1`, for which the outcome with Cryptococcus neoformans and with Candida albicans was Active.
For `CCc1cc(Nc2cc(O)cc(O)c2C(=O)N2Cc3cccnc3C2)n(Cc2ccc(OC)cc2)n1`, the outcome in the assay on Cryptococcus neoformans and in the assay with Candida albicans was Active.
For `COc1ccc(Cn2nc(-c3ccoc3)cc2Nc2cc(O)cc(O)c2C(=O)N2Cc3cn[nH]c3C2)cc1`, the outcome in the assay on Cryptococcus neoformans and with Candida albicans was Active.
Take `COc1ccc(Cn2nc(-c3ccccc3)cc2Nc2cc(O)cc(O)c2C(=O)N2CCCC2)cc1`: the result in the assay with Cryptococcus neoformans and in the assay with Candida albicans was Active.
In the case of `O=C(c1c(O)cc(O)cc1Nc1ccnn1Cc1ccccc1)N1Cc2cccnc2C1`, the result with Cryptococcus neoformans and in the assay on Candida albicans was Active.
Regarding `COc1ccc(Cn2ncc(-c3ccccc3)c2Nc2cc(O)cc(O)c2C(=O)N2Cc3ccccc3C2)cc1`, the result with Cryptococcus neoformans and in the assay with Candida albicans was Active.
In the case of `CC(C)(C)n1nc(-c2ccccc2)cc1Nc1cc(O)cc(O)c1C(=O)N1Cc2cn[nH]c2C1`, the result in the assay on Cryptococcus neoformans and with Candida albicans was Active.
For `COc1ccc(Cn2nc(C3CC3)cc2Nc2cc(O)cc(O)c2C(=O)N2Cc3cn[nH]c3C2)cc1`, the outcome with Cryptococcus neoformans and in the assay with Candida albicans was Active.
In the case of `Cn1nccc1Nc1cc(O)cc(O)c1C(=O)N1Cc2cn[nH]c2C1`, the outcome in the assay on Cryptococcus neoformans and with Candida albicans was Active.
For the compound `COc1ccc(Cn2nccc2Nc2cc(O)cc(O)c2C(=O)N2Cc3ccccc3C2)cc1`, the outcome in the assay on Cryptococcus neoformans and with Candida albicans was Active.
With `Cn1nc(-c2ccc(C(C)(C)C)cc2)cc1Nc1cc(O)cc(O)c1C(=O)N1Cc2cccnc2C1`, the result with Cryptococcus neoformans and in the assay with Candida albicans was Active.
For `COc1ccc(Cn2nc(-c3ccccc3)cc2Nc2cc(O)cc(O)c2C(=O)N2Cc3ccc(NC4CCN(C)CC4)cc3C2)cc1`, the result in the assay with Cryptococcus neoformans and in the assay with Candida albicans was Active.
`Cc1cccc(-c2cc(Nc3cc(O)cc(O)c3C(=O)N3Cc4ccccc4C3)n(C)n2)c1`: the result in the assay with Cryptococcus neoformans and in the assay on Candida albicans was Active.
For the compound `Cc1cccc(-c2cc(Nc3cc(O)cc(O)c3C(=O)N3Cc4cccnc4C3)n(C)n2)c1`, the result in the assay on Cryptococcus neoformans and in the assay with Candida albicans was Active.
As to `O=C(c1c(O)cc(O)cc1Nc1ccnn1-c1ccccc1)N1Cc2cn[nH]c2C1`, the outcome with Cryptococcus neoformans and in the assay on Candida albicans was Active.
For `O=C(c1c(O)cc(O)cc1Nc1ccnn1C1CCCCC1)N1Cc2cn[nH]c2C1`, the result with Cryptococcus neoformans and in the assay with Candida albicans was Active.
In the case of `O=C(c1c(O)cc(O)cc1Nc1ccnn1Cc1ccco1)N1Cc2cn[nH]c2C1`, the outcome in the assay with Cryptococcus neoformans and with Candida albicans was Active.
With `Cn1nc(-c2ccccc2)cc1Nc1cc(O)cc(O)c1C(=O)N1Cc2cn[nH]c2C1`, the result in the assay with Cryptococcus neoformans and in the assay on Candida albicans was Active.
Turning to `COc1ccc(-c2cc(Nc3cc(O)cc(O)c3C(=O)N3Cc4cn[nH]c4C3)n(C)n2)cc1`, the outcome in the assay on Cryptococcus neoformans and in the assay on Candida albicans was Active.
For the compound `O=C(c1c(O)cc(O)cc1Nc1ccnn1Cc1ccc(C(F)(F)F)cc1)N1Cc2cn[nH]c2C1`, the result with Cryptococcus neoformans and with Candida albicans was Active.
As for `CC(C)c1cc(Nc2cc(O)cc(O)c2C(=O)N2Cc3ccccc3C2)n(C)n1`, the outcome with Cryptococcus neoformans and in the assay with Candida albicans was Active.
As for `Cn1nc(C2CCCCC2)cc1Nc1cc(O)cc(O)c1C(=O)N1Cc2ccccc2C1`, the result with Cryptococcus neoformans and in the assay on Candida albicans was Active.
As to `COc1ccc(Cn2nc(C)cc2Nc2cc(O)cc(O)c2C(=O)N2Cc3cn[nH]c3C2)cc1`, the result in the assay on Cryptococcus neoformans and with Candida albicans was Active.
In the case of `COc1ccc(Cn2nc(-c3ccccc3)cc2Nc2cc(O)cc(O)c2C(=O)N2Cc3ccc(F)cc3C2)cc1`, the result in the assay with Cryptococcus neoformans and with Candida albicans was Active.
For `COc1ccc(Cn2nc(C)cc2Nc2cc(O)cc(O)c2C(=O)N2Cc3ccccc3C2)cc1`, the result in the assay on Cryptococcus neoformans and with Candida albicans was Active.
`COc1ccc(-c2cc(Nc3cc(O)cc(O)c3C(=O)N3Cc4ccccc4C3)n(C)n2)cc1`: the outcome with Cryptococcus neoformans and in the assay with Candida albicans was Active.
As to `Cn1nc(C2CCCCC2)cc1Nc1cc(O)cc(O)c1C(=O)N1Cc2cccnc2C1`, the result in the assay on Cryptococcus neoformans and with Candida albicans was Active.
In the case of `COc1ccc(Cn2nc(C)cc2Nc2cc(O)cc(O)c2C(=O)N2Cc3ccc(F)cc3C2)cc1`, the result in the assay on Cryptococcus neoformans and in the assay on Candida albicans was Active.
With `CC(C)c1ccc(Cn2nccc2Nc2cc(O)cc(O)c2C(=O)N2Cc3cccnc3C2)cc1`, the result in the assay on Cryptococcus neoformans and in the assay on Candida albicans was Active.
In the case of `COc1ccc(Cn2nc(-c3ccccc3)cc2Nc2cc(O)cc(O)c2C(=O)N2Cc3ccc(OCCN(C)C)cc3C2)cc1`, the result with Cryptococcus neoformans and with Candida albicans was Active.
In the case of `CC(C)Cn1nc(-c2ccccc2)cc1Nc1cc(O)cc(O)c1C(=O)N1Cc2cccnc2C1`, the result with Cryptococcus neoformans and with Candida albicans was Active.
Consider `COc1ccc(Cn2nc(C)cc2Nc2cc(O)cc(O)c2C(=O)N2Cc3ccc(OCCN(C)C)cc3C2)cc1`, for which the result with Cryptococcus neoformans and in the assay with Candida albicans was Active.
For `COc1ccc(Cn2nc(C)cc2Nc2cc(O)cc(O)c2C(=O)N2Cc3cccc(F)c3C2)cc1`, the outcome in the assay on Cryptococcus neoformans and in the assay on Candida albicans was Active.
With `O=C(c1c(O)cc(O)cc1Nc1ccnn1CC1CCCCC1)N1Cc2ccccc2C1`, the result in the assay on Cryptococcus neoformans and in the assay on Candida albicans was Active.
